Test results published in article PMC12752606, “METTL10‐Mediated PIAS3 Methylation Links Purine Metabolism to Gastric Cancer Progression” (Advanced Science, 2025).

Tests used:
METTL10 = test system: T1, METTL10; assay: MTase-Glo screening assay, METTL10 with Histone H4 peptide substrate; format: biochemical; conditions: 10 µM
T1 construct: purchased ICE Bioscience Inc
Experimental: To identify METTL10 inhibitors, an in‐silico screening was first conducted on an in‐house compound library comprising approximately 6000 structurally diverse molecules. Molecular docking simulations with the METTL10 protein identified 111 candidate compounds for further analysis. The methyltransferase activity of these candidates was assessed using the MTase‐Glo Methyltransferase Assay (Promega, V7601) according to the manufacturer's protocol. Briefly, the candidate compounds were preincubated with His‐METTL10 protein (1 µg) at 37 °C for 1 h in a methylation reaction buffer (50 mM Tris‐HCl (pH 8.0), 20 mM KCl, 5 mM DTT, 4 mM EDTA, and 20 µM SAM), followed by the addition of either the Histone H4 or PIAS3 peptide substrate for an additional 1 h. The reaction was then subjected to MTase‐Glo reagent buffer for 30 min, followed by MTase‐Glo detection buffer for another 30 min. Luminescence was measured using a luminometer (Promega), and IC50 values were calculated using GraphPad Prism 8 software.

[1] = test system: MITF ubiquitination in MKN45 and AGS cells; assay: Endogenous MITF ubiquitination and degradation in GC cells (IP and immunoblotting); format: cell-based; conditions: 20 µM, MG132 5 µM pretreatment
Experimental: Protein extraction from tissues or cells was performed by lysis buffer (20 mM Tris‐HCl (pH 7.5), 150 mM NaCl, 1 mM EDTA, 1 mM EGTA, 2.5 mM sodium pyrophosphate, 1 mM β‐glycerolphosphate, 1% Triton X‐100) supplemented with 1% phenylmethylsulfonyl fluoride (PMSF; Solarbio, P0100) and protease inhibitor cocktail (Apexbio, K1007) and lysed at 4 °C for 60 min, followed by centrifugation at 12000 g for 15 min at 4 °C. For Immunoblotting, the protein concentration was determined using the Pierce BCA Protein Assay Kit (Thermo Fisher Scientific, A55864). The protein samples were denatured by boiling in SDS‐PAGE loading buffer. For immunoprecipitation, antibodies were incubated with Dynabeads Protein G (Thermo, 10004D) at 4 °C for 4 h. The supernatant was then incubated with magnetic beads conjugated with antibodies or anti‐FLAG‐M2 magnetic beads (Sigma–Aldrich, M8823) at 4 °C overnight. Following incubation, the magnetic beads were washed three times with lysis buffer and then boiled in SDS‐PAGE loading buffer. […]
Plasmids were transfected into HEK293T cells for 24 h or into gastric cells for 36 h. […] After lysing the cells with lysis buffer, the samples were subjected to immunoprecipitation and analyzed by immunoblotting.

[2] = test system: METTL10 protein levels in MKN45 and AGS cells; assay: Immunoblotting of METTL10 protein levels in treated GC cells; format: cell-based; conditions: 20 µM, not rescued by MG132
Experimental: Protein extraction from tissues or cells was performed by lysis buffer (20 mM Tris‐HCl (pH 7.5), 150 mM NaCl, 1 mM EDTA, 1 mM EGTA, 2.5 mM sodium pyrophosphate, 1 mM β‐glycerolphosphate, 1% Triton X‐100) supplemented with 1% phenylmethylsulfonyl fluoride (PMSF; Solarbio, P0100) and protease inhibitor cocktail (Apexbio, K1007) and lysed at 4 °C for 60 min, followed by centrifugation at 12000 g for 15 min at 4 °C. For Immunoblotting, the protein concentration was determined using the Pierce BCA Protein Assay Kit (Thermo Fisher Scientific, A55864). The protein samples were denatured by boiling in SDS‐PAGE loading buffer. For immunoprecipitation, antibodies were incubated with Dynabeads Protein G (Thermo, 10004D) at 4 °C for 4 h. The supernatant was then incubated with magnetic beads conjugated with antibodies or anti‐FLAG‐M2 magnetic beads (Sigma–Aldrich, M8823) at 4 °C overnight. Following incubation, the magnetic beads were washed three times with lysis buffer and then boiled in SDS‐PAGE loading buffer. The proteins were separated by sodium dodecyl sulfate polyacrylamide gel electrophoresis (SDS‐PAGE) with One‐Step PAGE Gel Fast Preparation Kit (Vazyme), and then transferred to the PVDF Membrane (Bio‐Rad). After blocking with a protein‐free rapid blocking buffer (Epizyme, PS108P) for 15 min, the membranes were incubated with primary antibodies at 4 °C overnight. […]

[3] = test system: gastric tumors of Cldn18-AT mice; assay: Cldn18-AT advanced gastric cancer mouse model; format: in vivo; conditions: 40 mg/kg/day i.p., 28 days
Experimental: For the subcutaneous tumor model, 5 × 10⁶ MKN45 cells suspended in 100 µL of sterile PBS were injected subcutaneously into the flanks of BALB/c nude mice. When tumor volumes reached approximately 50 mm^3, mice were randomized into three groups (Vehicle control, LZQ‐02‐023‐01 at 20 mg/kg or 40 mg/kg, n = 10 per group). All treatments were administered via intraperitoneal injection once daily for 14 consecutive days. Tumor volumes were measured every 2 days using calipers and calculated using the formula: volume = [length × (width[2])]/2. Mice were sacrificed on day 24 for endpoint analyses. For genetically engineered mouse models (GEMMs), 25‐week‐old K19‐C2mE mice were randomized into Vehicle control (n = 8) and LZQ‐02‐023‐01 treatment (40 mg/kg, n = 8) groups. Both groups received daily intraperitoneal injections for 28 consecutive days. Similarly, 8‐week‐old Cldn18‐AT mice were induced with tamoxifen (100 mg/kg, T5648, Sigma) and, 2 weeks post‐induction, randomized into Vehicle (n = 6) and LZQ‐02‐023‐01 (40 mg/kg, n = 6) treatment groups. Treatments were administered daily via intraperitoneal injection for 28 days.
Paraffin sections were initially placed in an oven at 65 °C for 30 min to melt the paraffin. The slides were then immersed in two consecutive xylene baths for 10 min each to dewax the tissue, followed by hydration through a series of graded ethanol solutions. […]

## Cc1ccc(Nc2ncc3c(n2)N(C)C(=O)N(c2cccc(N)c2)C3)cn1 [LZQ-02-023-01, Three‐(3‐aminophenyl)‐1‐methyl‐7‐((6‐methylpyridin‐3‐yl)amino)‐3,4‐dihydropyrimido [4,5‐d] pyrimidin‐2 (1H)‐one]
METTL10
  Inhibition of METTL10 activity toward histone H4: significantly inhibited
[1]
  PIAS3-mediated ubiquitination and degradation of MITF, GC cells: significantly promoted
[2]
  METTL10 protein levels: significant reduction
[3]
  Pathologic grade of lesions and proliferation (H&E, Ki-67): lower pathologic grade lesions and proliferation
  Tumor burden and progression: significantly reduced tumor burden and progression
